Test results taken from patent US9469650B2, “Melampomagnolide B derivatives” (BOARD OF TRUSTEES OF THE UNIVERSITY OF ARKANSAS, priority 2013, dated 2016).
Read-outs that look alike come from different tables or passages of the source.

Tests used:
SK-MEL-28 = assay: panel of 60 human tumor cell lines, growth inhibition (Melanoma); conditions: Homo sapiens; for GI50: SK-MEL-28; for CC50: SK-MEL-28, read-out: LC50; for IC (TGI): SK-MEL-28, read-out: TGI
HT29 = assay: panel of 60 human tumor cell lines, growth inhibition (Colon Cancer); conditions: for Percent Growth: HT29; for GI50 / CC50 / IC (TGI): Homo sapiens; for GI50: HT-29; for CC50: HT-29, read-out: LC50; for IC (TGI): HT-29, read-out: TGI
MDA-MB-468 = assay: panel of 60 human tumor cell lines, growth inhibition (Breast Cancer); conditions: Homo sapiens; for GI50: MDA-MB-468; for CC50: MDA-MB-468, read-out: LC50; for IC (TGI): MDA-MB-468, read-out: TGI
UACC-62 = assay: panel of 60 human tumor cell lines, growth inhibition (Melanoma); conditions: Homo sapiens; for GI50: UACC-62; for CC50: UACC-62, read-out: LC50; for IC (TGI): UACC-62, read-out: TGI
A549/ATCC = assay: panel of 60 human tumor cell lines, growth inhibition (Non-Small Cell Lung Cancer); conditions: Homo sapiens; for GI50: A549; for CC50: A549, read-out: LC50; for IC (TGI): A549, read-out: TGI
MDA-MB-231/ATCC = assay: panel of 60 human tumor cell lines, growth inhibition (Breast Cancer); conditions: Homo sapiens; for GI50: MDA-MB-231; for CC50: MDA-MB-231, read-out: LC50; for IC (TGI): MDA-MB-231, read-out: TGI
OVCAR-8 = assay: panel of 60 human tumor cell lines, growth inhibition (Ovarian Cancer); conditions: Homo sapiens; for GI50: OVCAR-8; for CC50: OVCAR-8, read-out: LC50; for IC (TGI): OVCAR-8, read-out: TGI
HCT-116 = assay: panel of 60 human tumor cell lines, growth inhibition (Colon Cancer); conditions: Homo sapiens; for GI50: HCT-116, HCT-116, NCI five dose; for CC50: HCT-116, read-out: LC50; for IC (TGI): HCT-116, read-out: TGI
OVCAR-3 = assay: panel of 60 human tumor cell lines, growth inhibition (Ovarian Cancer); conditions: for GI50 / CC50 / IC (TGI): Homo sapiens; for GI50 / Percent Growth: OVCAR-3; for CC50: OVCAR-3, read-out: LC50; for IC (TGI): OVCAR-3, read-out: TGI
SK-MEL-2 = assay: panel of 60 human tumor cell lines, growth inhibition (Melanoma); conditions: Homo sapiens; for GI50: SK-MEL-2; for CC50: SK-MEL-2, read-out: LC50; for IC (TGI): SK-MEL-2, read-out: TGI
SNB-75 = assay: panel of 60 human tumor cell lines, growth inhibition (CNS Cancer); conditions: Homo sapiens; for GI50: SNB-75; for CC50: SNB-75, read-out: LC50; for IC (TGI): SNB-75, read-out: TGI
TK-10 = assay: panel of 60 human tumor cell lines, growth inhibition (Renal Cancer); conditions: Homo sapiens; for GI50: TK-10, TK-10, NCI five dose; for CC50: TK-10, read-out: LC50; for IC (TGI): TK-10, read-out: TGI
CCRF-CEM = assay: panel of 60 human tumor cell lines, growth inhibition (Leukemia); conditions: Homo sapiens; for GI50: NCI five dose; for CC50: read-out: LC50; for IC (TGI): read-out: TGI
UACC-257 = assay: panel of 60 human tumor cell lines, growth inhibition (Melanoma); conditions: for GI50 / CC50: Homo sapiens; for GI50 / Percent Growth / TGI: UACC-257; for CC50: UACC-257, read-out: LC50; for TGI: NCI five dose
SR = assay: panel of 60 human tumor cell lines, growth inhibition (Leukemia); conditions: Homo sapiens; for CC50: read-out: LC50; for IC (TGI): read-out: TGI
SN12C = assay: panel of 60 human tumor cell lines, growth inhibition (Renal Cancer); conditions: Homo sapiens; for CC50: read-out: LC50; for IC (TGI): read-out: TGI

C=C1C(=O)O[C@H]2[C@H]1CC/C(COC(=O)OCCN(C)C)=C\CC[C@@]1(C)O[C@@H]21 [JVM 2-35] was tested, and the GI50 (SK-MEL-28) was 4.27 µM, the CC50 (SK-MEL-28) was 48.3 µM and the IC (TGI) (SK-MEL-28) was 17.9 µM. The “Percent Growth” value (HT29; Log10 Concentration −4.0) was −29%, the “Percent Growth” value (HT29; Log10 Concentration −5.0) was 91% and the “Percent Growth” value (HT29; Log10 Concentration −6.0) was 98%. The “Percent Growth” value (HT29; Log10 Concentration −7.0) was 99%, the “Percent Growth” value (HT29; Log10 Concentration −8.0) was 98% and the GI50 (HT29) was 21.8 µM. The CC50 (HT29) was > 100 µM, the IC (TGI) (HT29) was 57.2 µM and the GI50 (MDA-MB-468) was 1.46 µM. It also gave a CC50 (MDA-MB-468) of 50.4 µM, an IC (TGI) (MDA-MB-468) of 9.2 µM and a GI50 (UACC-62) of 6.13 µM. For the same compound, the CC50 (UACC-62) was 46.6 µM, the IC (TGI) (UACC-62) was 19.9 µM and the GI50 (A549/ATCC) was 16.3 µM. It also gave a CC50 (A549/ATCC) of 71.6 µM, an IC (TGI) (A549/ATCC) of 34.2 µM and a GI50 (MDA-MB-231/ATCC) of 5.86 µM. For the same compound, the CC50 (MDA-MB-231/ATCC) was 56.9 µM, the IC (TGI) (MDA-MB-231/ATCC) was 21.3 µM and the GI50 (OVCAR-8) was 13.5 µM. The CC50 (OVCAR-8) was 96 µM, the IC (TGI) (OVCAR-8) was 36 µM and the GI50 (HCT-116) was 2.66 µM. The CC50 (HCT-116) was 33.6 µM, the IC (TGI) (HCT-116) was 11.3 µM and the GI50 (OVCAR-3) was 3.31 µM. The CC50 (OVCAR-3) was 35.3 µM, the IC (TGI) (OVCAR-3) was 11.5 µM and the “Percent Growth” value (OVCAR-3; Log10 Concentration −4.0) was −96%. For the same compound, the “Percent Growth” value (OVCAR-3; Log10 Concentration −5.0) was 6%, the “Percent Growth” value (OVCAR-3; Log10 Concentration −6.0) was 97% and the “Percent Growth” value (OVCAR-3; Log10 Concentration −7.0) was 106%. For the same compound, the “Percent Growth” value (OVCAR-3; Log10 Concentration −8.0) was 98%, the GI50 (SK-MEL-2) was 15.2 µM and the CC50 (SK-MEL-2) was 86.6 µM. It also gave an IC (TGI) (SK-MEL-2) of 36.3 µM, a GI50 (SNB-75) of 4.96 µM and a CC50 (SNB-75) of 50.7 µM. It also gave an IC (TGI) (SNB-75) of 21.5 µM, a GI50 (TK-10) of 3.92 µM and a CC50 (TK-10) of 43.8 µM. For the same compound, the IC (TGI) (TK-10) was 15.1 µM, the GI50 (CCRF-CEM) was 2.1 µM and the CC50 (CCRF-CEM) was > 100 µM. The IC (TGI) (CCRF-CEM) was 6.14 µM, the GI50 (UACC-257) was 10.2 µM and the CC50 (UACC-257) was 55.2 µM. The “Percent Growth” value (UACC-257; Log10 Concentration −4.0) was −85%, the “Percent Growth” value (UACC-257; Log10 Concentration −5.0) was 51% and the “Percent Growth” value (UACC-257; Log10 Concentration −6.0) was 92%. The “Percent Growth” value (UACC-257; Log10 Concentration −7.0) was 86%, the “Percent Growth” value (UACC-257; Log10 Concentration −8.0) was 93% and the TGI (UACC-257) was 2.38E−5. For the same compound, the GI50 (SR) was 2.22 µM, the CC50 (SR) was > 100 µM and the IC (TGI) (SR) was 12.1 µM. The “Percent Growth” value (HL-60(TB); Log10 Concentration −4.0) was −52%, the “Percent Growth” value (HL-60(TB); Log10 Concentration −5.0) was −17% and the “Percent Growth” value (HL-60(TB); Log10 Concentration −6.0) was 72%. The “Percent Growth” value (HL-60(TB); Log10 Concentration −7.0) was 83%, the “Percent Growth” value (HL-60(TB); Log10 Concentration −8.0) was 94% and the GI50 (SN12C) was 13.2 µM. For the same compound, the CC50 (SN12C) was > 100 µM and the IC (TGI) (SN12C) was 39.7 µM.
C=C1C(=O)O[C@H]2[C@H]1CC/C(COC(=O)OC)=C\CC[C@@]1(C)O[C@@H]21 [JVM 2-40] showed a GI50 (SK-MEL-28) of 3.59 µM, a CC50 (SK-MEL-28) of 44.8 µM and an IC (TGI) (SK-MEL-28) of 16 µM. For the same compound, the “Percent Growth” value (HT29; Log10 Concentration −4.0) was −76%, the “Percent Growth” value (HT29; Log10 Concentration −5.0) was 83% and the “Percent Growth” value (HT29; Log10 Concentration −6.0) was 99%. The “Percent Growth” value (HT29; Log10 Concentration −7.0) was 96%, the “Percent Growth” value (HT29; Log10 Concentration −8.0) was 96% and the GI50 (HT29) was 16.1 µM. It also gave a CC50 (HT29) of 68.6 µM, an IC (TGI) (HT29) of 33.2 µM and a GI50 (MDA-MB-468) of 0.574 µM. The CC50 (MDA-MB-468) was 19.2 µM, the IC (TGI) (MDA-MB-468) was 3.09 µM and the GI50 (UACC-62) was 5.93 µM. It also gave a CC50 (UACC-62) of 46.2 µM, an IC (TGI) (UACC-62) of 19.5 µM and a GI50 (A549/ATCC) of 13.3 µM. For the same compound, the CC50 (A549/ATCC) was 61.3 µM, the IC (TGI) (A549/ATCC) was 28.6 µM and the GI50 (MDA-MB-231/ATCC) was 3.54 µM. For the same compound, the CC50 (MDA-MB-231/ATCC) was 46.7 µM, the IC (TGI) (MDA-MB-231/ATCC) was 16.6 µM and the GI50 (OVCAR-8) was 8.95 µM. It also gave a CC50 (OVCAR-8) of 65.6 µM, an IC (TGI) (OVCAR-8) of 24.7 µM and a GI50 (HCT-116) of 2.24 µM. The CC50 (HCT-116) was 33.2 µM, the IC (TGI) (HCT-116) was 11 µM and the GI50 (OVCAR-3) was 2.63 µM. For the same compound, the CC50 (OVCAR-3) was 30.6 µM, the IC (TGI) (OVCAR-3) was 9.31 µM and the “Percent Growth” value (OVCAR-3; Log10 Concentration −4.0) was −100%. For the same compound, the “Percent Growth” value (OVCAR-3; Log10 Concentration −5.0) was −3%, the “Percent Growth” value (OVCAR-3; Log10 Concentration −6.0) was 88% and the “Percent Growth” value (OVCAR-3; Log10 Concentration −7.0) was 100%. The “Percent Growth” value (OVCAR-3; Log10 Concentration −8.0) was 99%, the GI50 (SK-MEL-2) was 10.6 µM and the CC50 (SK-MEL-2) was 59.5 µM. The IC (TGI) (SK-MEL-2) was 25.1 µM, the GI50 (SNB-75) was 2.69 µM and the CC50 (SNB-75) was 42.5 µM. It also gave an IC (TGI) (SNB-75) of 17.9 µM, a GI50 (TK-10) of 2.65 µM and a CC50 (TK-10) of 32.9 µM. The IC (TGI) (TK-10) was 10.8 µM, the GI50 (CCRF-CEM) was 1.49 µM and the CC50 (CCRF-CEM) was 98 µM. It also gave an IC (TGI) (CCRF-CEM) of 6.04 µM, a GI50 (UACC-257) of 4.98 µM and a CC50 (UACC-257) of 46.7 µM. For the same compound, the “Percent Growth” value (UACC-257; Log10 Concentration −4.0) was −92%, the “Percent Growth” value (UACC-257; Log10 Concentration −5.0) was 36% and the “Percent Growth” value (UACC-257; Log10 Concentration −6.0) was 82%. The “Percent Growth” value (UACC-257; Log10 Concentration −7.0) was 84%, the “Percent Growth” value (UACC-257; Log10 Concentration −8.0) was 90% and the TGI (UACC-257) was 1.90E−5. The GI50 (SR) was 2.24 µM, the CC50 (SR) was > 100 µM and the IC (TGI) (SR) was 12.5 µM. For the same compound, the “Percent Growth” value (HL-60(TB); Log10 Concentration −4.0) was −55%, the “Percent Growth” value (HL-60(TB); Log10 Concentration −5.0) was −12% and the “Percent Growth” value (HL-60(TB); Log10 Concentration −6.0) was 68%. For the same compound, the “Percent Growth” value (HL-60(TB); Log10 Concentration −7.0) was 91%, the “Percent Growth” value (HL-60(TB); Log10 Concentration −8.0) was 97% and the GI50 (SN12C) was 6.31 µM. The CC50 (SN12C) was 64.4 µM and the IC (TGI) (SN12C) was 22.6 µM.
